Experimental data from US9988407B2, “Prodrugs of prostate specific membrane antigen (PSMA) inhibitor” (THE JOHNS HOPKINS UNIVERSITY, priority 2014, dated 2018).
“And” between values parts separate entries of the source, which are not always exact repeats. Identical values can stand only once.

Tests used:
[1] = Metabolic stability in human liver microsomes; type: in vitro ADME; conditions: 10 μM, 37° C.
Summary of the method: (§1)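 Prodrugs at 10 μM were incubated in plasma or liver microsomes at 37° C, with triplicate samples taken at 0, 30 and 60 min and quenched in cold acetonitrile. Loss of prodrug was followed by LC/MS/MS in positive electrospray mode. Percent remaining came from the analyte-to-internal-standard peak-area ratio.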

[2] = Metabolic stability in dog liver microsomes; type: in vitro ADME; conditions: 10 μM, 37° C.
Method: For metabolic stability, plasma (mouse, dog, monkey and human) and liver microsomes (mouse, dog, monkey and human) were used. For stability, prodrugs (10 μM) were spiked in each matrix and incubated in an orbital shaker at 37° C. At predetermined times (0, 30 and 60 min), 100 μL aliquots of the mixture in triplicate were removed and the reaction quenched by addition of three times the volume of ice cold acetonitrile spiked with the internal standard (losartan 5 μM). The samples were vortexed for 30 s and centrifuged 12000 g for 10 min. 50 μL supernatant diluted with 50 μL water was transferred to a 250 μL polypropylene vial sealed with a Teflon cap. Prodrug disappearance was monitored over time using a liquid chromatography and tandem mass spectrometry (LC/MS/MS) method as described below.
For LC/MS/MS, prodrugs were separated with Thermo Scientific Accela UPLC system coupled to Accela open autosampler on an Agilent C18 (100×2.1 mm id) UPLC column. The autosampler was temperature controlled and operating at 10° C. The mobile phase used for the chromatographic separation was composed of acetonitrile/water containing 0.1% formic acid and was run at a flow rate of 0.5 mL/minute for 4.5 minutes using gradient elution. The column effluent was monitored using TSQ Vantage triple-quadrupole mass spectrometric detector, equipped with an electrospray probe set in the positive ionization mode. Samples were introduced into the ionization source through a heated nebulized probe (350° C.).
For quantification of compound remaining, disappearance of prodrugs was measured from ratio of peak areas of analyte to IS. Percentage remaining was calculated in the following manner: […]

[3] = Metabolic stability in mouse plasma; type: in vitro ADME; conditions: 10 μM, 37° C.
Summary of the method: as §1

[4] = In vivo pharmacokinetics in beagle dogs, p.o.; conditions: 10 mg/kg (equiv 2-PMPA), N=1, single dose
Method: (by mouth). Blood samples were collected from the jugular vein (˜1 mL) via direct venipuncture, placed into potassium oxalate with sodium fluoride tubes, and maintained on wet ice until processed. Blood samples were centrifuged at a temperature of 4° C., at 3000×g, for 5 minutes. Blood samples were maintained chilled throughout processing. Plasma was collected in tubes and flash frozen. Samples were stored in a freezer set to maintain −60° C. to −80 OC until further analysis. […] The tissues were stored in −20° C. for 1 h and then homogenized. The calibration curve for the tissues was developed using naïve mouse brains from untreated animals as a matrix. For sciatic nerve, the nerves were weighed and homogenized in 50 μL methanol and the calibration curve was developed using naïve sciatic nerves from untreated animals as a matrix. The samples were vortexed and centrifuged. […] Supernatant was dried under a gentle stream of nitrogen at 45° C. and the residue reconstituted with 75 μL of acetonitrile and vortexed. 25 μL of derivatizing agent N-tert-Butyldimethysilyl-N-methyltrifluoro-acetamide (MTBSTFA) was added to microcentrifuge tubes, vortexed, and heated at ˜60 OC for 40 min. At the end of 40 min, the derivatized samples ˜75 μL were transferred to a 250 μL polypropylene vials and were analyzed via LC/MS/MS. […]

[5] = In vivo pharmacokinetics in mice, peroral, bioanalysis method 1 (total prodrug exposure); conditions: mice, oral dosing
Summary of the method: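 Mice dosed orally; plasma sampled by cardiac puncture 0–4 h (n=3 per time) or at 30 min only. Total prodrug measured after methanol extraction and n-butanol/3N HCl derivatization by UPLC-MS/MS. Non-compartmental PK: observed Cmax/Tmax, AUC by log-linear trapezoidal rule, t1/2=0.693/ke.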

## CC(C)OC(=O)OCOC(=O)C(CCC(=O)O)CP(=O)(OCOC(=O)OC(C)C)OCOC(=O)OC(C)C (centres unmarked) [Compound 10]
[1]; 0 min
  Percentage remaining: 100%
[1]; 30 min, listed as TRIS-POC
  Percentage remaining: 5% and 3%
[1]; 60 min
  Percentage remaining: 0%
[2]; 0 min
  Percentage remaining: 100%
[2]; 30 min
  Percentage remaining: 1%
[2]; 60 min
  Percentage remaining: 0%
[3]; 0 min
  Percentage remaining: 100%
[3]; 30 min
  Percentage remaining: 1%
[3]; 60 min
  Percentage remaining: 0%
[4]
  Cmax: high Cmax
[5]
  permeability in vivo: highest permeability
